Assay results: US6887899B1, “Method for controlling house dust mites with a composition comprising phenylethyl propionate” (Ecosmart Technologies, Inc., priority 1999, dated 2005)

System: American home dust mites
Assay: Efficacy of plant essential oils (actives) against dust mite, residue on glass petri dish
Text: Efficacy of different plant essential oils (actives) against dust mite
Two different concentrations of each test actives were used
50 dust mites (American home dust mites) were used per replicate. Four replicates were used per test concentration
Chemicals were applied to the surface of 100 mm glass petri dish in acetone. The control plates received same volume of solvent (acetone) only. All plates left at room temperature for air dry. After 1 hr (complete evaporation of acetone) the dust mites were transferred to each plate.
test actives were tested with and without 2 parts of piperonyl butoxide (PBO), known synergist.
Data are the mean of four replicates (200 dust mites per test concentration per chemical)

[1] = 25 ppm, 5 min, W/PBO (2 parts piperonyl butoxide)
[2] = 25 ppm, 15 min, W/PBO (2 parts piperonyl butoxide)
[3] = 25 ppm, 60 min, W/PBO (2 parts piperonyl butoxide)
[4] = 250 ppm, 5 min, W/PBO (2 parts piperonyl butoxide)

| SMILES | % Mortality (25 ppm, 5 min, W/O PBO) [%] | % Mortality [1] [%] | % Mortality (25 ppm, 15 min, W/O PBO) [%] | % Mortality [2] [%] | % Mortality (25 ppm, 60 min, W/O PBO) [%] | % Mortality [3] [%] | % Mortality (250 ppm, 5 min, W/O PBO) [%] | % Mortality [4] [%] | % Mortality (250 ppm, 15 min, W/O PBO) [%] | % Mortality (250 ppm, 60 min, W/O PBO) [%] | % Mortality (250 ppm, 15 min, W/PBO (2 parts piperonyl butoxide)) [%] | % Mortality (250 ppm, 60 min, W/PBO (2 parts piperonyl butoxide)) [%] |
| --- | --- | --- | --- | --- | --- | --- | --- | --- | --- | --- | --- | --- |
| Cc1ccc(C(C)C)c(O)c1 [thymol] | 67 | 80 | 72.2 | 85.0 | 80.0 | 87.5 | 100 | 100 |  |  |  |  |
| OCc1ccccc1 [BA, Benzyl Alcohol] | 53 | 68 | 61.0 | 73.0 | 68.0 | 79.0 | 90 | 100 | 98 | 100 |  |  |
| CCC(=O)OCCc1ccccc1 [PEP, phenethyl propionate] | 54 | 63 | 60.0 | 69.0 | 62.0 | 78.0 | 80 | 97 | 92 | 99 | 99 | 100 |
